Data published in patent publication US20230293518A1 (Edgewise Therapeutics, Inc., priority 2020, published 2023).

Target: skeletal myofibrils (myosin ATPase)
Experiment: Skeletal Myofibril ATPase Assay
Assay type: biochemical
Protocol: Example 12. Skeletal Myofibril ATPase Assay
Overview: Myosin ATPase activity is assessed by using a coupled reaction system, in which ADP generated by the myosin ATPase function is coupled to the disappearance of NADH through the pyruvate kinase/lactate dehydrogenase (PK-LDH) system. ATPase activity produces ADP, which is used as a substrate for PK to produce pyruvate and regenerate ATP. The pyruvate is then used as a substrate by LDH to oxidize NADH to NAD+. The rate of the reaction is monitored through the time-dependent disappearance of NADH using absorbance at 340 nm. Inhibition of ATPase activity by the assayed compounds is indicated by a reduced rate of NADH loss, relative to vehicle-treated controls, over the experimental time window. To assess the selectivity of the assayed compounds for skeletal myofibrils, the compounds are counter-screened in cardiac myofibrils.
Materials: The following stock solutions and reagents were used in the Skeletal Myofibril ATPase Assay:
Stock Solutions of pCa buffer. Combine PIPES, CaCl2, and EGTA solutions with 70 mL of water. Adjust pH to 7.0 and bring final volume to 100 mL.
Buffer A & Buffer B. Buffers were stored on ice until use.
Skeletal Myofibril ATPase Assay Procedure: BSA, ATP, NADH, PEP, and DTT solutions were thawed at room temperature, then transferred to ice. Pellet-frozen myofibrils were transferred with approximately twice the required volume into a sufficiently large tube and capped. Myofibrils were thawed by rolling in a water bath for approximately 15 min at room temperature and cooled on ice. Buffers A and B were prepared by adjusting volumes as necessary for required number of wells and stored on ice. 0.5 μL of the compounds to be assayed were added into wells. 25 μL of Buffer A was dispensed into the wells, followed by 25 μL of Buffer B. The wells were measured for absorbance at 340 nm, using a kinetic protocol in which the wells are read every 1.5-2 min for 45 min. The slope of the data was approximated by subtracting the minimum absorbance value from the maximum value for each well. This was accomplished either in the SoftMax Pro software or in a spreadsheet program such as Excel. Using GraphPad Prism 8.0, the data was normalized by assigning a value of 100% to the 1% DMSO vehicle wells. Typically, a normalized 0% value was simply assigned to a (Max−Min) value of 0. The normalized data was fit to a Four Parameter Logistic sigmoidal equation, constraining the bottom to be 0 or greater. Compounds of Table 1, 2, and 3 were tested and results of the assay appear in Tables 4a-4c. A=IC50 is less than or equal to 10 μM; B═IC50 is greater than 10 μM and less than 100 μM; C═IC50 is greater than 100 μM.

Row | Compound | IC50 (Table 4A) [µM] | IC50 (Table 4B) [µM]
1 | O=C(Cn1nc(-c2ccc(OC(F)F)nc2)ccc1=O)NCc1ccccc1Cl [Compound I-69, N-(2-chlorobenzyl)-2-(3-(6-(difluoromethoxy)pyridin-3-yl)-6-oxopyridazin-1(6H)-yl)acetamide] | < 10 | –
2 | O=C(Cn1nc(-c2ccc(OC(F)F)nc2)ccc1=O)NCc1ccc(Cl)cc1 [Compound I-70, N-(4-chlorobenzyl)-2-(3-(6-(difluoromethoxy)pyridin-3-yl)-6-oxopyridazin-1(6H)-yl)acetamide] | < 10 | –
3 | O=C(Cn1nc(-c2cnc(OCC(F)(F)F)nc2)ccc1=O)NC1CCC1 [Compound I-71, N-cyclobutyl-2-(6-oxo-3-(2-(2,2,2-trifluoroethoxy)pyrimidin-5-yl)pyridazin-1(6H)-yl)acetamide] | < 10 | –
4 | O=C(Cn1nc(-c2cnc(OCCOC(F)(F)F)nc2)ccc1=O)NC1CCC1 [Compound I-72, N-cyclobutyl-2-(6-oxo-3-(2-(2-(trifluoromethoxy)ethoxy)pyrimidin-5-yl)pyridazin-1(6H)-yl)acetamide] | < 10 | –
5 | CCCOc1ncc(-c2ccc(=O)n(CC(=O)NC3CCC3)n2)cn1 [Compound I-73, N-cyclobutyl-2-(6-oxo-3-(2-propoxypyrimidin-5-yl)pyridazin-1(6H)-yl)acetamide] | < 10 | –
6 | CCNC(=O)Cn1nc(-c2ccc(NC3CC(F)(F)C3)nc2)ccc1=O [Compound I-74, 2-(3-(6-((3,3-difluorocyclobutyl)amino)pyridin-3-yl)-6-oxopyridazin-1(6H)-yl)-N-ethylacetamide] | 10 to 100 | –
7 | CCNC(=O)Cn1nc(-c2ccc(OC3CC(F)(F)C3)nc2)ccc1=O [Compound I-75, 2-(3-(6-(3,3-difluorocyclobutoxy)pyridin-3-yl)-6-oxopyridazin-1(6H)-yl)-N-ethylacetamide] | 10 to 100 | –
8 | O=C(Cn1nc(-c2ccc(OC(F)F)nc2)ccc1=O)NCc1cccc(Cl)c1 [Compound I-76, N-(3-chlorobenzyl)-2-(3-(6-(difluoromethoxy)pyridin-3-yl)-6-oxopyridazin-1(6H)-yl)acetamide] | 10 to 100 | –
9 | CCNC(=O)Cn1nc(-c2cnc(OCC3CC(F)(F)C3)nc2)ccc1=O [Compound I-77, 2-(3-(2-((3,3-difluorocyclobutyl)methoxy)pyrimidin-5-yl)-6-oxopyridazin-1(6H)-yl)-N-ethylacetamide] | 10 to 100 | –
10 | CCNC(=O)Cn1nc(-c2cnc(Oc3ccc(Cl)cc3)nc2)ccc1=O [Compound I-78, 2-(3-(2-(4-chlorophenoxy)pyrimidin-5-yl)-6-oxopyridazin-1(6H)-yl)-N-ethylacetamide] | 10 to 100 | –
11 | CC(C)COc1ncc(-c2ccc(=O)n(CC(=O)NC3CCC3)n2)cn1 [Compound I-79, N-cyclobutyl-2-[3-[2-(2-methylpropoxy)pyrimidin-5-yl]-6-oxopyridazin-1-yl]acetamide] | > 100 | –
12 | CCNC(=O)Cn1nc(-c2ccc(OC(C)(F)F)cc2)ccc1=O [II-1, 2-(3-(4-(1,1-difluoroethoxy)phenyl)-6-oxopyridazin-1(6H)-yl)-N-ethylacetamide] | – | < 10
13 | CCNC(=O)Cn1nc(-c2ccc(NC(C)=O)cc2)ccc1=O [II-2, 2-(3-(4-acetamidophenyl)-6-oxopyridazin-1(6H)-yl)-N-ethylacetamide] | – | < 10
14 | O=C(Cn1nc(-c2ccc(OC(F)F)cc2)ccc1=O)NCc1ccccc1Cl [II-3, N-(2-chlorobenzyl)-2-(3-(4-(difluoromethoxy)phenyl)-6-oxopyridazin-1(6H)-yl)acetamide] | – | < 10
15 | CC(C)NC(=O)Cn1nc(-c2ccc(OC(F)(F)F)cc2)ccc1=O [II-4, N-isopropyl-2-(6-oxo-3-(4-(trifluoromethoxy)phenyl)pyridazin-1(6H)-yl)acetamide] | – | < 10
16 | CCNC(=O)Cn1nc(-c2ccc(OC(F)(F)F)cc2)ccc1=O [II-5, N-ethyl-2-(6-oxo-3-(4-(trifluoromethoxy)phenyl)pyridazin-1(6H)-yl)acetamide] | – | < 10

Row | Compound | IC50 (Table 4A) [µM] | IC50 (Table 4B) [µM]
17 | CCNC(=O)Cn1nc(-c2ccc(OCC(F)(F)F)cc2)ccc1=O [II-6, N-ethyl-2-(6-oxo-3-(4-(2,2,2-trifluoroethoxy)phenyl)pyridazin-1(6H)-yl)acetamide] | – | < 10
18 | CCNC(=O)Cn1nc(-c2ccc(OCC(F)F)cc2)ccc1=O [II-7, 2-(3-(4-(2,2-difluoroethoxy)phenyl)-6-oxopyridazin-1(6H)-yl)-N-ethylacetamide] | – | < 10
19 | CC(=O)Nc1ccc(-c2ccc(=O)n(CC(=O)NCc3ccccc3Cl)n2)cc1 [II-8, 2-(3-(4-acetamidophenyl)-6-oxopyridazin-1(6H)-yl)-N-(2-chlorobenzyl) acetamide] | – | < 10
20 | O=C(Cn1nc(-c2ccc(OC(F)F)cc2)ccc1=O)NC1CCC1 [II-9, N-cyclobutyl-2-(3-(4-(difluoromethoxy)phenyl)-6-oxopyridazin-1(6H)-yl)acetamide] | – | < 10
21 | CCNC(=O)Cn1nc(-c2ccc(OC(F)F)cc2)ccc1=O [II-10, 2-(3-(4-(difluoromethoxy)phenyl)-6-oxopyridazin-1(6H)-yl)-N-ethylacetamide] | – | < 10
22 | O=C(Cn1nc(-c2ccc(OC(F)F)cc2)ccc1=O)NCC(F)(F)F [II-11, 2-(3-(4-(difluoromethoxy)phenyl)-6-oxopyridazin-1(6H)-yl)-N-(2,2,2-trifluoroethyl) acetamide] | – | 10 to 100
23 | CCCNC(=O)Cn1nc(-c2ccc(OC(F)F)cc2)ccc1=O [II-12, 2-(3-(4-(difluoromethoxy)phenyl)-6-oxopyridazin-1(6H)-yl)-N-propylacetamide] | – | 10 to 100
24 | CC(C)CNC(=O)Cn1nc(-c2ccc(OC(F)F)cc2)ccc1=O [II-13, 2-(3-(4-(difluoromethoxy)phenyl)-6-oxopyridazin-1(6H)-yl)-N-isobutylacetamide] | – | 10 to 100
25 | CC(=O)Nc1ccc(-c2ccc(=O)n(CC(=O)NC(C)C)n2)cc1 [II-14, 2-(3-(4-acetamidophenyl)-6-oxopyridazin-1(6H)-yl)-N-isopropylacetamide] | – | 10 to 100
26 | O=C(Cn1nc(-c2ccc(OC(F)F)cc2)ccc1=O)NCC(F)F [II-15, N-(2,2-difluoroethyl)-2-(3-(4-(difluoromethoxy)phenyl)-6-oxopyridazin-1(6H)-yl)acetamide] | – | 10 to 100
27 | CC(C)(C)NC(=O)Cn1nc(-c2ccc(OC(F)F)cc2)ccc1=O [II-16, N-(tert-butyl)-2-(3-(4-(difluoromethoxy)phenyl)-6-oxopyridazin-1(6H)-yl)acetamide] | – | 10 to 100
28 | CCCCNC(=O)Cn1nc(-c2ccc(OC(F)F)cc2)ccc1=O [II-17, N-butyl-2-(3-(4-(difluoromethoxy)phenyl)-6-oxopyridazin-1(6H)-yl)acetamide] | – | 10 to 100
29 | O=C(Cn1nc(-c2ccc(OC(F)F)cc2)ccc1=O)NCC1CCC1 [II-18, N-(cyclobutylmethyl)-2-(3-(4-(difluoromethoxy)phenyl)-6-oxopyridazin-1(6H)-yl)acetamide] | – | 10 to 100
30 | CCNC(=O)Cn1nc(-c2ccc(OC(F)F)cc2)c(C)cc1=O [II-19, 2-(3-(4-(difluoromethoxy)phenyl)-4-methyl-6-oxopyridazin-1(6H)-yl)-N-ethylacetamide] | – | 10 to 100
31 | O=C(Cn1nc(-c2ccc(OCC(F)(F)F)cc2)ccc1=O)NCc1ccc(O)nc1 [II-20, N-((6-hydroxypyridin-3-yl)methyl)-2-(6-oxo-3-(4-(2,2,2-trifluoroethoxy)phenyl)pyridazin-1(6H)-yl)acetamide] | – | > 100
